Results from patent US7998682B2, “Method for assessing atherosclerosis by measuring expression of FOS or DUSP1 in monocytes” (The United States of America as represented by the …, priority 2004, dated 2011).

Tests used:
THP1 cells = experiment: Monocyte adhesion of PMA-stimulated THP1 cells to plastic substratum; type: cell-based, human
Experimental: (§1) FIGS. 3A-3B are digital images and graphs showing the functional effects of statin and FOS siRNA inhibition on monocyte activation by PMA. FIG. 3A is a bar graph and a digital image wherein THP1 cells were pretreated with simvastatin and/or mevalonate for 20 hours prior to stimulation with 2 nM PMA. Cell adhesion was determined 4 hours after PMA stimulation; cumulative MCP-1 release into medium was assayed 24 hours after PMA stimulation. […] P values for the difference in cell adhesion and MCP-1 release after statin treatment were 0.004 and 0.04, respectively. FIG. 3B is a bar graph and a digital image wherein THP1 cells were stimulated with 2 nM PMA 30 minutes after siRNA transfection for 4 hours. Control (−) cells were mock transfected without siRNA as a transfection control. […]
(§2) Monocyte function: For pretreatment experiments, cells were incubated with 10 μM simvastatin and/or 1 mM mevalonate for 20 hours prior to stimulation with phorbol 12-myristate 13-acetate (PMA, Sigma, St. Louis, Mo.). Cell adhesion was determined by gently washing off the nonadherent cells twice and pooling them. […] Viable nonadherent and adherent cells were counted using Trypan Blue dye. Cumulative MCP-1 release into the medium was determined using the MCP-1 immunoassay kit (R& D Systems, Minneapolis, Minn.) after 24 hours PMA stimulation.

MCP-1 = experiment: Cumulative MCP-1 release into medium by PMA-stimulated THP1 cells (immunoassay); type: cell-based, human
Experimental: as §1, §2

FOS protein = FOS protein level by Western blot in PMA-stimulated THP1 cells; type: cell-based, human; conditions: 1 mM mevalonate added with simvastatin, 20 hours before PMA
FOS = experiment: RT-PCR of FOS in human monocytic cell lines stimulated with PMA; type: cell-based; conditions: five human monocytic cell lines, 20 nM PMA
Source text: FIGS. 2A-2D are digital images and graphs showing expression of FOS in human carotid plaque macrophages and in activated human monocytic cells and ApoE KO mouse splenocytes. FIG. 2A is a digital image of fresh frozen sections of human carotid artery plaques stained with hematoxylin and eosin (H&E), negative control immunoglobulin (Control Ig) and antibodies against CD14 or FOS. CD14+ staining of macrophages colocalizes with FOS immunoreactivity (25× magnification). Note that the CD14 staining gives a more diffuse appearance consistent with cell surface plasma membrance staining while the FOS pattern is more punctate consistent with nuclear localization. For the digital image shown as FIG. 2B, from four patients, the corresponding mononuclear cell (MNC), circulating monocyte (Mono) and carotid plaque purified macrophage (Mac) preparations were used for quantitative RT-PCR. The normalized expression levels shown were obtained as described in FIG. 1A. Note the progressively higher pattern of candidate gene expression associated with increasing concentration of monocytes and activation into macrophages. […] Values expressed as mean±SE, P=0.04. […]
Quantitative real-time RT-PCR: mRNA from lystates (10^5 cells) were purified by binding to poly(dT) magnetic beads (Dynal Biotech Inc. Brown Deer, Wis.) and reverse transcribed using Superscript II (Invitrogen, Carlsbad, Calif.). […]

DUSP1 = experiment: RT-PCR of DUSP1 in human monocytic cell lines stimulated with PMA; type: cell-based; conditions: five human monocytic cell lines, 20 nM PMA
[1] = 1 mM mevalonate in medium with simvastatin, 20 hours before PMA

Compound: CCC(C)(C)C(=O)O[C@H]1C[C@@H](C)C=C2C=C[C@H](C)[C@H](CC[C@@H]3C[C@@H](O)CC(=O)O3)[C@H]21 [statins, simvastatin]
- reduction in monocyte adhesion to plastic substratum compared to control (THP1 cells; 10 μM simvastatin pretreatment 20 hours, 2 nM PMA, 4 hours after PMA, P=0.004): approximately 70%
- reduction in MCP-1 release into medium compared to control (MCP-1; 10 μM simvastatin pretreatment 20 hours, 2 nM PMA, 24 hours after PMA, P=0.04): approximately 70%

Compound: CC(O)(CCO)CC(=O)O (stereo not shown) [mevalonate]
- effect on statin-induced reduction in FOS protein (FOS protein): reversed
- effect on statin-induced reduction in monocyte adhesion (THP1 cells; [1]): specifically reversed
- effect on statin-induced reduction in MCP-1 release (MCP-1; [1]): specifically reversed

Compound: CCCCCCCCCCCCCC(=O)O[C@@H]1[C@@H](C)[C@@]2(O)[C@@H](C=C(CO)C[C@]3(O)C(=O)C(C)=C[C@@H]23)[C@@H]2C(C)(C)[C@]12OC(C)=O [PMA, phorbol 12-myristate 13-acetate]
- FOS expression after PMA stimulation (FOS): uniformly induced in all five cell lines
- DUSP1 expression after PMA stimulation (DUSP1): repressed in two of the cell lines
